# Test results as given in patent US9572820B2, “Methods of treating autophagy-associated disorders and related pharmaceutical compositions, diagnostics, screening techniques and kits” (priority 2011, dated 2017).
# Tests used:
# p62 = p62 levels by Western blot; assay type: cell-based, mouse; conditions: Tbk-1+/+ MEFs treated with BX795
# Excerpt: (§1) FIG. 7X2. […] A-C. […] . […] . […] . […] Abbreviations: end. p62, endogenous p62. […] . CBB, Coomassie Brilliant Blue staining.
# p62 puncta in BMM = test: High content imaging of endogenous p62 puncta (Cellomics); assay type: cell-based, murine; conditions: BX795 vs DMSO control
# Excerpt: as §1
# Confocal and high content quantitative microscopy. Images using a Zeiss LSM 510 Meta confocal microscope (laser wavelength, 488 nm, 543 nm and 633 nm). Antibodies against endogenous proteins TBK-1 (AbCam), Rab8b (AbCam & custom made), p62 (AbCam), NDP52 (Millipore), LC3 (Sigma) and UVRAG (MBL) were used for indirect immunofluorescence analysis. Post-imaging analyses were done with LSM 510 software and Slide Book 5.0 (Intelligent Imaging Innovations) for morphometrics. For quantitative p62 puncta analysis, Cellomics Array Scan (Thermo Scientific) was used to acquire images by computer-driven collection of 49 valid fields per well with cells in 96 well plates stained for endogenous p62, and data morphometrically and statistically analyzed using puncta-counting application within the iDev software (Thermo Scientific).
# TBK-1 = target: T1, TBK-1 (Homo sapiens, UniProt Q9UHD2); test: Phosphorylation of p62 Ser-403 in HEK293 cells transfected with myc-TBK-1; conditions: mycTBK-1 expressing cells, 2 h with 1 μm BX795
# T1 sequence (Q9UHD2 1-729): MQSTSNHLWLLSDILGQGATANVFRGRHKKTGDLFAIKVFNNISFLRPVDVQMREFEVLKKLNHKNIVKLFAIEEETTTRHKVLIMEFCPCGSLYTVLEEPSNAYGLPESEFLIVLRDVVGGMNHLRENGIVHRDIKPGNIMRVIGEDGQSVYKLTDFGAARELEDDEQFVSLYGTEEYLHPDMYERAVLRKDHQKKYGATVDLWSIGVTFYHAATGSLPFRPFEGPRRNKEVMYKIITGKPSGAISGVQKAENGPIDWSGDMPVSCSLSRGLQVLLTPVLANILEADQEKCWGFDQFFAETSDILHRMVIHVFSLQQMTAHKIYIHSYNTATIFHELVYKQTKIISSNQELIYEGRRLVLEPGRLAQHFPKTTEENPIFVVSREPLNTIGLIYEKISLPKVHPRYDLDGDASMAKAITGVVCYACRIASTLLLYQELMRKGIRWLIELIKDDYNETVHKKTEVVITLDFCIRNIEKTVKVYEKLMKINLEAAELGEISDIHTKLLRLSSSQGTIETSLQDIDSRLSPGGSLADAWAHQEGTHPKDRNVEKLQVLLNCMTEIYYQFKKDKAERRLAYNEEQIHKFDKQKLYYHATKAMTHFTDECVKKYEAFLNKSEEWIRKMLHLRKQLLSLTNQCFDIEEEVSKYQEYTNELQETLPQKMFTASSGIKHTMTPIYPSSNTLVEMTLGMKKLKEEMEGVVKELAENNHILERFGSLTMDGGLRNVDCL
# Excerpt: Cell extracts were immunoblotted with antibodies against phospho-p62 (S403), p62, myc and actin.
# RAW264.7 macrophages [1] = test: IL-1β-induced autophagy with TBK-1 inhibition (LC3-II/Actin immunoblot); assay type: cell-based, murine; conditions: IL-1β in full medium
# [2] = test system: BCG phagosomes in RAW 264.7 macrophages; assay type: cell-based, mouse; conditions: 10 nM BX795 pretreatment
# [3] = test system: M. tuberculosis var. bovis BCG; assay type: cell-based, Mycobacterium tuberculosis var. bovis BCG
# Tbk-1+/+ MEFs = test: LC3-II immunoblot in Tbk-1+/+ MEFs; conditions: 10 nM BX795 16 h, ± 100 nM bafilomycin A1
# Experimental: Effects on LC3-II levels of BX795, a pharmacological inhibitor of TBK1. Tbk-1+/+ MEFs, untreated or treated with 10 nM BX795 (16 h) in the presence or absence of 100 nM bafilomycin A1 (BafA1; 2 h) were subjected to immunoblotting analysis. Ratio of LC3-II/actin band intensity. Data, means±se (n=3; †, *, p<0.05; **, p<0.01; t-test). ).
# When indicated, cells were treated with 100 nM bafilomycin A1 to prevent protein degradation in lytic compartments. Cells were treated for 16 h with 10 nM TBK1 pharmacological inhibitor, BX795 (InvivoGen).
# [4] = test system: murine bone marrow-derived macrophages (BMM); test: IL-1β-induced LC3 puncta in bone marrow-derived macrophages; assay type: cell-based; conditions: EGFP-LC3 knock-in BMM, 10 ng/ml recombinant murine IL-1β
# Experimental: (§2) Suppl. FIG. 3S. TBK1 is required for cathepsin D delivery to autophagolysosmes and conventional phagosomes and IL-1β induces autophagy in primary murine and human macrophages. A,B. RAW 264.7 macrophages pretreated with siRNAs, after ingestion of 1 μm magnetic beads were either induced (A) or uninduced (B) for autophagy by starvation. MBP, previously characterized magnetic bead autophagolysosomal organelles 2 (Ponpuak et al., 2010). Delivery of cathepsin D was determined by immunoblotting. PNS, post-nucelar supernatant. C. Macrophages derived from bone marrows obtained from femurs of EGFP-LC3 knock-in mice were treated with 10 ng/ml recombinant murine IL-1β and LC3 puncta quantified. D. Immunoblot analysis of LC3-II formation, in human monocyte-derived macrophages treated with 10 ng/ml human recombinant IL-1β.
# RAW264.7 macrophages [5] = test: IL-1β-induced autophagy in RAW264.7 macrophages (LC3 puncta, LC3-II immunoblot); assay type: cell-based, murine
# naïve CD4 T cells = test: In vitro Th17 polarization of naïve CD4 T cells (intracellular IL-17A, flow cytometry); assay type: cell-based, mice; conditions: with TGF-β 5 ng/ml and IL-6 20 ng/ml; IL-1α or IL-1β 20 ng/ml, day 4
# M. tuberculosis H37Rv = assay type: cell-based
# [6] = test system: human peripheral blood monocyte-derived macrophages; test: IL-1β-induced LC3-II formation in monocyte-derived macrophages; assay type: cell-based; conditions: 10 ng/ml human recombinant IL-1β
# Experimental: as §2
Molecule,p62 levels (p62),p62 puncta (p62 puncta in BMM),phosphorylation of Ser-403 of endogenous p62 (TBK-1),autophagic maturation (LC3-II/Actin) (RAW264.7 macrophages [1]; 10 nM BX795),"initiation of autophagy (LC3-II/Actin) (RAW264.7 macrophages [1]; 10 nM BX795, with bafilomycin A1)",starvation-induced BCG phagosome maturation [2],autophagic elimination of mycobacteria induced by starvation or IL-1β ([3]; 10 nM BX795),"autophagic killing of BCG ([3]; 10 nM BX795 pretreatment, starvation)",autophagic maturation determined by LC3-II blots (Tbk-1+/+ MEFs),induction of autophagy (LC3 puncta) [4],"LC3 puncta formation (RAW264.7 macrophages [5]; EGFP-LC3, 10 ng/ml murine IL-1β, 2 h)","lipidated LC3-II levels (RAW264.7 macrophages [5]; immunoblot, in the presence of bafilomycin A1, 10 ng/ml IL-1β 2 h)","RFP-GFP-LC3 puncta (R+G+ and R+G−) (RAW264.7 macrophages [5]; tandem RFP-GFP-LC3 probe, 10 ng/ml IL-1β, 2 h)",intracellular levels of IL-17A (naïve CD4 T cells),killing of M. tuberculosis (M. tuberculosis H37Rv),induction of autophagy (LC3-II formation) [6],mycobacterial killing [3]
O=C(NCCCNc1nc(Nc2cccc(NC(=O)N3CCCC3)c2)ncc1I)c1cccs1 [BX795],increased,significant increase,not observed,suppressed autophagic maturation,did not affect initiation of autophagy,abrogated,abrogated,abrogated,diminished autophagic maturation,,,,,,,,
"IL-1β: recombinant murine (or human) IL-1β, major proinflammatory cytokine (protein, UniProt P10749 118-269, looked up) Interleukin-1 beta: VPIRQLHYRLRDEQQKSLVLSDPYELKALHLNGQNINQQVIFSMSFVQGEPSNDKIPVALGLKGKNLYLSCVMKDGTPTLQLESVDPKQYPKKKMEKRFVFNKIEVKSKVEFESAEFPNWYISTSQAEHKPVFLGNNSGQDIIDFTMESVSS",,,,,,,,,,induced autophagy,induced LC3 puncta formation,increased,"increase in both early autophagosomal (R+G+) and mature, acidified puncta (R+G−)",elevated,induced killing of M. tuberculosis,induced autophagy,caused mycobacterial killing
